Test results: patent US11072632B2, “Inhibitors of 17β-HSD1, 17β-HSD3 and 17β-HSD10” (UNIVERSITÉ LAVAL, priority 2011, dated 2021)
Where two headings read alike, the source gives them in different places.

Key:
17β-HSD3 [1] = molecular target: T1, 17β-HSD3 (Homo sapiens, UniProt P37058); assay: Inhibition of 17β-HSD3 in homogenated HEK-293 cells; assay type: biochemical
T1 construct: expressed in transfected cells; host or cells: HEK-293 (homogenate)
T1 sequence (P37058 1-310): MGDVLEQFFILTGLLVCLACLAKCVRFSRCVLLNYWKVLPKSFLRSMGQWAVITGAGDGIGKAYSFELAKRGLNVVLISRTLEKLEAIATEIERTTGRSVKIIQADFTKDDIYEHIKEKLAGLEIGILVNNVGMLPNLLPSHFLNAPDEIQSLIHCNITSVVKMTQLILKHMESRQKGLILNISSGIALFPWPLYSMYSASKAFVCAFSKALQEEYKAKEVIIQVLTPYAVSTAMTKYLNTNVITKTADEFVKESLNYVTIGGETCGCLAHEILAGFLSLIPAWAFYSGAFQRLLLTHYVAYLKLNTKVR

17β-HSD3 [2] = molecular target: T1, 17β-HSD3; assay: Inhibition of 17β-HSD3 in intact HEK-293 cells; assay type: cell-based; details: for Intact cells (%), tested at 1 μM: Table 3, footnote b
17β-HSD10 = molecular target: T2, 17β-HSD10 (Homo sapiens, UniProt Q99714); assay: Inhibition of 17β-HSD10 in stably transfected HEK-293 whole cells (E2 into E1); assay type: cell-based; details: for IC50: intact transfected HEK-293 cells, E2 1 μM, read-out: IC50
T2 construct: expressed in transfected cells
T2 sequence (Q99714 1-261): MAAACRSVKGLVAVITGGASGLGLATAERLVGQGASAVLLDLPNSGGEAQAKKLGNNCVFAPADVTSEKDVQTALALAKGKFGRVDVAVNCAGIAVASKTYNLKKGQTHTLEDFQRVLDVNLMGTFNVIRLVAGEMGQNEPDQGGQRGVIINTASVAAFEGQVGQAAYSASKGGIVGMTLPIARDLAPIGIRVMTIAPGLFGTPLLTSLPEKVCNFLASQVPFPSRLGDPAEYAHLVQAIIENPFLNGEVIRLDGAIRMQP

[3] = Table 3, read-out: Homo (%) (0.01 μM)
[4] = Table 3, read-out: Homo (%) (0.1 μM)
[5] = HEK293, [14C]-E2 (1 μM) into [14C]-E1, intact HEK-293 cells, 1 μM, read-out: Inhibition (%) at 1 μM
[6] = [14C]-E2 (1 μM) into [14C]-E1, intact HEK-293 cells, 1 μM
[7] = read-out: Homo (%) (0.01 μM), Table 3
[8] = read-out: Homo (%) (0.1 μM), Table 3
[9] = HEK293, 1 h, read-out: Intact cells (%) (0.1 μM), Table 3, 0.1 μM
[10] = HEK293, read-out: Inhibition (%) at 1 μM
[11] = HEK293, 1 h, Table 3, 0.1 μM, read-out: Intact cells (%) (0.1 μM)

Row | SMILES | inhibition at 0.01 µM (17β-HSD3 [1]; [3]) [%] | inhibition at 0.1 µM (17β-HSD3 [1]; [4]) [%] | Intact cells (%), tested at 1 μM (17β-HSD3 [2]; 1 μM) | inhibition at 1 µM (17β-HSD10; [5]) [%] | Homo (%) (0.01 μM) (17β-HSD3 [1]; Table 3) | Homo (%) (0.1 μM) (17β-HSD3 [1]; Table 3) | Inhibition (%) at 1 μM (17β-HSD10; [6]) [%] | further results
1 | C[C@]12CC[C@](O)(CN3CCN(Cc4cccc(SC(F)(F)F)c4)CC3)C[C@@H]1CC[C@@H]1[C@@H]2CC[C@]2(C)C(=O)CC[C@@H]12 [Compound 10d, (3α,5α)-3-hydroxy-3-[(4-{3-[(trifluoromethyl)sulfanyl]benzyl}piperazin-1-yl)methyl]androstan-17-one] | 3 | 91 | N/A (62)^b % | 29 |  |  |  | 
2 | CC1CN(C[C@@]2(O)CC[C@@]3(C)[C@@H](CC[C@@H]4[C@@H]3CC[C@]3(C)C(=O)CC[C@@H]43)C2)C(C)CN1Cc1ccc(C(F)(F)F)cc1 (stereo partly drawn) [Compound 11c, (3α,5α)-3-({(2ξ,5ξ)-2,5-dimethyl-4-[4-(trifluoromethyl)benzyl]piperazin-1-yl}methyl)-3-hydroxyandrostan-17-one] |  |  |  |  | 14 | 87 | 24 | Intact cells (%) (0.1 μM) (17β-HSD3 [2]; Table 3, 0.1 μM): 36%
3 | CC1CN(CC2(O)CCC3(C)C(CCC4C5CCC(=O)C5(C)CCC43)C2)C(C)CN1Cc1ccccc1C(F)(F)F (stereo not drawn) [Compound 11b, (3α,5α)-3-({(2ξ,5ξ)-2,5-dimethyl-4-[2-(trifluoromethyl)benzyl]piperazin-1-yl}methyl)-3-hydroxyandrostan-17-one] |  |  |  |  | 22 | 85 | 25 | Intact cells (%) (0.1 μM) (17β-HSD3 [2]; Table 3, 0.1 μM): 36%
4 | C[C@]12CC[C@](O)(CN3CCN(S(=O)(=O)c4ccc(C(F)(F)F)cc4)CC3)C[C@@H]1CC[C@@H]1[C@@H]2CC[C@]2(C)C(=O)CC[C@@H]12 [Compound 14c, (3α,5α)-3-hydroxy-3-[(4-{[4-(trifluoromethyl)phenyl]sulfonyl}-piperazin-1-yl)methyl]androstan-17-one] |  |  |  |  |  |  |  | inhibition at 0.01 µM (17β-HSD3 [1]; [7]): 21%; inhibition at 0.1 µM (17β-HSD3 [1]; [8]): 78%; inhibition at 0.1 µM (17β-HSD3 [2]; [9]): 34%; inhibition at 1 µM (17β-HSD10; [10]): 14%
5 | CC1CN(C[C@@]2(O)CC[C@@]3(C)[C@@H](CC[C@@H]4[C@@H]3CC[C@]3(C)C(=O)CC[C@@H]43)C2)C(C)CN1Cc1cccc(SC(F)(F)F)c1 (stereo partly drawn) [Compound 11d, (3α,5α)-3-{[(2ξ,5ξ)-2,5-dimethyl-4-{3-[(trifluoromethyl)sulfanyl]benzyl}piperazin-1-yl]methyl}-3-hydroxyandrostan-17-one] |  |  | N/A (58)^b % |  | 18 | 88 | 27 | 
6 | CC1CN(S(=O)(=O)c2ccccc2C(F)(F)F)C(C)CN1CC1(O)CCC2(C)C(CCC3C4CCC(=O)C4(C)CCC32)C1 (stereo not drawn) [Compound 15c] |  |  |  |  | 79 | 92 | 18 | Intact cells (%) (0.1 μM) (17β-HSD3 [2]; Table 3, 0.1 μM): 47%
7 | C[C@]12CC[C@](O)(CN3CCN(C(=O)c4ccccc4C(F)(F)F)CC3)C[C@@H]1CC[C@@H]1[C@@H]2CC[C@]2(C)C(=O)CC[C@@H]12 [Compound 12c, (3α,5α)-3-hydroxy-3-[(4-{[2-(trifluoromethyl)phenyl]carbonyl}-piperazin-1-yl)methyl]androstan-17-one] | 31 | 86 |  | 47 |  |  |  | inhibition at 0.1 µM (17β-HSD3 [2]; [11]): 62%
8 | C[C@]12CC[C@](O)(CN3CCN(Cc4ccccc4C(F)(F)F)CC3)C[C@@H]1CC[C@@H]1[C@@H]2CC[C@]2(C)C(=O)CC[C@@H]12 [Compound 10b, (3α,5α)-3-hydroxy-3-({4-[2-(trifluoromethyl)benzyl]piperazin-1-yl}methyl)androstan-17-one] | 18 | 86 |  | 50 |  |  |  | inhibition at 0.1 µM (17β-HSD3 [2]; [11]): 20%
9 | CC1CN(C(=O)c2ccc(C(F)(F)F)cc2)C(C)CN1C[C@@]1(O)CC[C@@]2(C)[C@@H](CC[C@@H]3[C@@H]2CC[C@]2(C)C(=O)CC[C@@H]32)C1 (stereo partly drawn) [Compound 13d, (3α,5α)-3-{[(2,5)-2,5-dimethyl-4-{[4-(trifluoromethyl)phenyl]carbonyl}piperazin-1-yl]methyl}-3-hydroxyandrostan-17-one] |  |  |  |  | 17 | 91 | 22 | Intact cells (%) (0.1 μM) (17β-HSD3 [2]; Table 3, 0.1 μM): 61%
10 | C[C@]12CC[C@@]3(C[C@@H]1CC[C@@H]1[C@@H]2CC[C@]2(C)C(=O)CC[C@@H]12)CN(CCO)C(=O)O3 [Compound 21, (3R,5S,8R,9S,10S,13S,14S)-3′-(2-hydroxyethyl)-10,13-dimethyltetrahydrodecahydro-2′H-spiro[cyclopenta[α]phenanthrene-3,5′-[1,3]oxazolidine]-2′,17(2H)-dione] |  |  |  |  |  |  |  | inhibition at 0.01 µM (17β-HSD3 [1]; read-out: Homo (%) (0.01 μM), Table 4): 0%; inhibition at 0.1 µM (17β-HSD3 [1]; read-out: Homo (%) (0.1 μM), Table 4): 9%; inhibition at 1 µM (17β-HSD3 [1]; read-out: Homo (%) (1.0 μM), Table 4, 1.0 μM): 38%; Intact cells (%) (0.1 μM), tested in another experiment (17β-HSD3 [2]; Table 4, footnote b, 0.1 μM): 16^b %; IC50 (17β-HSD10): 0.55 µM
11 | C[C@]12CC[C@](O)(CN3CCN(Cc4ccccc4)CC3)C[C@@H]1CC[C@@H]1[C@@H]2CC[C@]2(C)C(=O)CC[C@@H]12 [Compound 7j, (3α,5α)-3-[(4-benzylpiperazin-1-yl)methyl]-3-hydroxyandrostan-17-one] |  |  |  |  |  |  |  | inhibition at 0.01 µM (17β-HSD3 [1]; Table 2 (17β-HSD3), [14C]-Δ4-dione 50 nM into [14C]-T, read-out: Homo (%) (0.01 μM)): 35%; inhibition at 0.01 µM (17β-HSD3 [1]; [7]): 36%; inhibition at 0.1 µM (17β-HSD3 [1]; read-out: Homo (%) (0.1 μM), Table 2 (17β-HSD3)): 72%; inhibition at 0.1 µM (17β-HSD3 [1]; [8]): 74%; inhibition at 1 µM (17β-HSD3 [1]; read-out: Homo (%) (1 μM), Table 2 (17β-HSD3), 1 μM): 90%; inhibition at 0.1 µM (17β-HSD3 [2]; HEK293, 1 h, read-out: Intact cells (%) (0.1 μM), Table 2 (17β-HSD3), 0.1 μM): 37%; inhibition at 0.1 µM (17β-HSD3 [2]; [9]): 38%; inhibition at 1 µM (17β-HSD3 [2]; HEK293, 1 h, read-out: Intact cells (%) (1 μM), Table 2 (17β-HSD3), 1 μM): 80%; inhibition at 1 µM (17β-HSD10; [10]): 57%
12 | CC1CN(S(=O)(=O)c2cccc(C(F)(F)F)c2)C(C)CN1C[C@@]1(O)CC[C@@]2(C)[C@@H](CC[C@@H]3[C@@H]2CC[C@]2(C)C(=O)CC[C@@H]32)C1 (stereo partly drawn) [Compound 15a, (3α,5α)-3-{[(2ξ,5ξ)-2,5-dimethyl-4-{[3-(trifluoromethyl)phenyl]sulfonyl}piperazin-1-yl]methyl}-3-hydroxyandrostan-17-one] |  |  |  |  | 32 | 91 | 42 | Intact cells (%) (0.1 μM) (17β-HSD3 [2]; Table 3, 0.1 μM): 77%
13 | C[C@]12CC[C@](O)(CN3CCN(Cc4cccnc4)CC3)C[C@@H]1CC[C@@H]1[C@@H]2CC[C@]2(C)C(=O)CC[C@@H]12 [Compound 10g, (3α,5α)-3-hydroxy-3-{[4-(pyridin-3-ylmethyl)piperazin-1-yl]methyl}androstan-17-one] | 10 | 33 | N/A (63)^b % | 37 |  |  |  | 
14 | COc1cccc(CN2CCN(C[C@@]3(O)CC[C@@]4(C)[C@@H](CC[C@@H]5[C@@H]4CC[C@]4(C)C(=O)CC[C@@H]54)C3)CC2)c1 [Compound 10f, (3α,5α)-3-hydroxy-3-{[4-(3-methoxybenzyl)piperazin-1-yl]methyl}androstan-17-one] | 21 | 83 |  | 59 |  |  |  | inhibition at 0.1 µM (17β-HSD3 [2]; [11]): 47%; IC50 (17β-HSD10): 0.55 µM
15 | C[C@]12CC[C@](O)(CN3CCN(S(=O)(=O)c4cccc(C(F)(F)F)c4)CC3)C[C@@H]1CC[C@@H]1[C@@H]2CC[C@]2(C)C(=O)CC[C@@H]12 [Compound 14a, (3α,5α)-3-hydroxy-3-[(4-{[3-(trifluoromethyl)phenyl]sulfonyl}piperazin-1-yl)methyl]androstan-17-one] | 21 | 82 | N/A (71)^b % | 3 |  |  |  | 
16 | CC1CN(C[C@@]2(O)CC[C@@]3(C)[C@@H](CC[C@@H]4[C@@H]3CC[C@]3(C)C(=O)CC[C@@H]43)C2)C(C)CN1Cc1cccc(Cl)c1 (stereo partly drawn) [Compound 11e, (3α,5α)-3-{[(2ξ,5ξ)-4-(3-chlorobenzyl)-2,5-dimethylpiperazin-1-yl]methyl}-3-hydroxyandrostan-17-one] |  |  | N/A (55)^b % |  | 26 | 84 | 25 | 
17 | CC1CN(C[C@@]2(O)CC[C@@]3(C)[C@@H](CC[C@@H]4[C@@H]3CC[C@]3(C)C(=O)CC[C@@H]43)C2)C(C)CN1Cc1cccc(C(F)(F)F)c1 (stereo partly drawn) [Compound 11a, (3α,5α)-3-({(2ξ,5ξ)-2,5-dimethyl-4-[3-(trifluoromethyl)benzyl]piperazin-1-yl}methyl)-3-hydroxyandrostan-17-one] |  |  | N/A (78)^b % |  | 31 | 89 | 26 | 
